# Read-outs that look alike come from different tables or passages of the source.
# Tests used:
# Moraxella catarrhalis = experiment: MIC by two-fold serial agar dilution, Sensitivity Disk agar-N (Kitasato isolates); type: cell-based; conditions: Moraxella catarrhalis (22)
# Aeromonas spp. = experiment: MIC by agar dilution (NCCLS M7-A4), 288 enteropathogenic isolates, gemifloxacin and 15 other antimicrobials; type: cell-based; conditions: for MIC: Aeromonas spp. N= 16
# Salmonella spp. = experiment: as above; type: cell-based; conditions: for MIC: Salmonella
# Staphylococcus aureus = experiment: microbe, parasite or virus in culture; type: cell-based
# Hafnia alvei = experiment: MIC by agar dilution (NCCLS M7-A4), 288 enteropathogenic isolates, gemifloxacin and 15 other antimicrobials; type: cell-based; conditions: Hafnia alvei N= 32
# Streptococcus pneumoniae = experiment: MIC by two-fold serial agar dilution, Sensitivity Disk agar-N (Kitasato isolates); type: cell-based; conditions: for MIC90 / MIC / MIC50: Streptococcus pneumoniae; for MIC90: read-out: MIC90; for MIC: read-out: MIC Range; for MIC50: read-out: MIC50
# Haemophilus influenzae = experiment: as above; type: cell-based; conditions: Haemophilus influenzae (24)
# Shigella spp. = experiment: MIC by agar dilution (NCCLS M7-A4), 288 enteropathogenic isolates, gemifloxacin and 15 other antimicrobials; type: cell-based; conditions: for MIC: Shigella spp. N= 21
# Method in brief: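 Agar dilution with ~10^4 cfu/spot inoculum; plates incubated aerobically at 35 °C for 24 h, except C. jejuni, held microaerophilically for 48 h. MIC taken as lowest antibiotic concentration with no visible growth.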
# Campylobacter jejuni = experiment: as above; conditions: Campylobacter jejuni
# Yersinia enterocolitica = experiment: as above; type: cell-based; conditions: for MIC: Yersinia enterocolitica N= 22
# [1] = 24 h, read-out: MIC (mg/L) Range
# [2] = 18 h, Ciprofloxacin-resistant (21), ciprofloxacin MIC ≥8 µg/ml
# [3] = 18 h, Ciprofloxacin-resistant (21)
# [4] = 18 h, Erythromycin-resistant (37)
# [5] = 18 h, Penicillin-resistant (19)
structure (smiles),measurement,setting,value
"CC1(C)S[C@@H]2[C@H](NC(=O)[C@H](N)c3ccc(O)cc3)C(=O)N2[C@H]1C(=O)O [Amoxycillin, amoxycillin]",MIC50,Moraxella catarrhalis,8 µg/mL
same,MIC90,Moraxella catarrhalis,16 µg/mL
same,MIC Range,Moraxella catarrhalis,1 to 16 µg/mL
same,susceptibility of isolates,Aeromonas spp.; Aeromonas spp.,non susceptible
same,MIC,Aeromonas spp.; read-out: MIC (mg/L) 50%,> 128 mg/L
same,MIC,Aeromonas spp.; read-out: MIC (mg/L) 90%,> 128 mg/L
same,susceptible isolates,"Salmonella spp.; Salmonella spp., breakpoints",77%
same,MIC,"Salmonella spp.; read-out: MIC (mg/L) 50%, Salmonella spp. N= 106",1 mg/L
same,MIC,"Salmonella spp.; read-out: MIC (mg/L) 90%, Salmonella spp. N= 106",> 128 mg/L
same,MIC90,Staphylococcus aureus,128 µg/mL
same,MIC90,Staphylococcus aureus; Staphylococcus aureus,64 µg/mL
same,MIC,Hafnia alvei; [1],16 to 128 mg/L
same,MIC,Hafnia alvei; read-out: MIC (mg/L) 50%,64 mg/L
same,MIC,Hafnia alvei; read-out: MIC (mg/L) 90%,64 mg/L
same,MIC Range,Streptococcus pneumoniae; Ciprofloxacin-susceptible (94),≤0.008 to 8 µg/mL
same,MIC Range,Streptococcus pneumoniae; Minocycline-resistant (37),≤0.008 to 8 µg/mL
same,MIC90,Streptococcus pneumoniae; [2],0.5 µg/mL
same,MIC,Streptococcus pneumoniae; [3],0.016 to 1 µg/mL
same,MIC,Streptococcus pneumoniae; [4],0.016 to 8 µg/mL
same,MIC,Streptococcus pneumoniae; [5],0.25 to 8 µg/mL
same,MIC50,Streptococcus pneumoniae; Ciprofloxacin-resistant (21),0.016 µg/mL
same,MIC50,Streptococcus pneumoniae; Ciprofloxacin-susceptible (94),0.063 µg/mL
same,MIC90,Streptococcus pneumoniae; Ciprofloxacin-susceptible (94),0.5 µg/mL
same,MIC50,Streptococcus pneumoniae; Erythromycin-resistant (37),0.063 µg/mL
same,MIC90,Streptococcus pneumoniae; Erythromycin-resistant (37),0.5 µg/mL
same,MIC50,Streptococcus pneumoniae; Minocycline-resistant (37),0.063 µg/mL
same,MIC90,Streptococcus pneumoniae; Minocycline-resistant (37),0.5 µg/mL
same,MIC50,Streptococcus pneumoniae; Penicillin-resistant (19),0.5 µg/mL
same,MIC90,Streptococcus pneumoniae; Penicillin-resistant (19),8 µg/mL
same,MIC50,Haemophilus influenzae,1 µg/mL
same,MIC90,Haemophilus influenzae,64 µg/mL
same,susceptible isolates,"Shigella spp.; Shigella spp., breakpoints",43%
same,MIC,Shigella spp.; read-out: MIC (mg/L) 50%,128 mg/L
same,MIC,Shigella spp.; read-out: MIC (mg/L) 90%,> 128 mg/L
same,MIC,Campylobacter jejuni; read-out: MIC (mg/L) 50%,4 mg/L
same,MIC,Campylobacter jejuni; read-out: MIC (mg/L) 90%,32 mg/L
same,MIC,Yersinia enterocolitica; [1],128 mg/L
same,susceptibility of isolates,Yersinia enterocolitica; Yersinia enterocolitica,non susceptible
same,MIC,Yersinia enterocolitica; read-out: MIC (mg/L) 50%,128 mg/L
same,MIC,Yersinia enterocolitica; read-out: MIC (mg/L) 90%,128 mg/L
"CO/N=C(\C(=O)N[C@@H]1C(=O)N2C(C(=O)O)=C(/C=C\c3scnc3C)CS[C@H]12)c1csc(N)n1 [Cefditoren, cefditoren]",MIC50,Moraxella catarrhalis,0.5 µg/mL
same,MIC90,Moraxella catarrhalis,1 µg/mL
same,MIC Range,Moraxella catarrhalis,0.063 to 1 µg/mL
same,MIC Range,Staphylococcus aureus; Methicillin-resistant (38),32 to 128 µg/mL
same,MIC Range,Staphylococcus aureus; Methicillin-susceptible (9),0.5 to 1 µg/mL
same,MIC50,"Staphylococcus aureus; Staphylococcus aureus, Methicillin-resistant (38)",128 µg/mL
same,MIC90,"Staphylococcus aureus; Staphylococcus aureus, Methicillin-resistant (38), read-out: MIC90",128 µg/mL
same,MIC50,"Staphylococcus aureus; Staphylococcus aureus, Methicillin-susceptible (9)",1 µg/mL
same,MIC90,"Staphylococcus aureus; Staphylococcus aureus, Methicillin-susceptible (9), read-out: MIC90",1 µg/mL
same,MIC90,Streptococcus pneumoniae; [2],0.25 µg/mL
same,MIC,Streptococcus pneumoniae; [3],0.008 to 1 µg/mL
same,MIC,"Streptococcus pneumoniae; 18 h, Ciprofloxacin-susceptible (94)",0.008 to 2 µg/mL
same,MIC,Streptococcus pneumoniae; [4],0.008 to 2 µg/mL
same,MIC,"Streptococcus pneumoniae; 18 h, Minocycline-resistant (37)",0.008 to 2 µg/mL
same,MIC,Streptococcus pneumoniae; [5],0.25 to 2 µg/mL
same,MIC50,Streptococcus pneumoniae; Ciprofloxacin-resistant (21),≤ 0.008 µg/mL
same,MIC50,Streptococcus pneumoniae; Ciprofloxacin-susceptible (94),0.063 µg/mL
same,MIC90,Streptococcus pneumoniae; Ciprofloxacin-susceptible (94),0.25 µg/mL
same,MIC50,Streptococcus pneumoniae; Erythromycin-resistant (37),0.063 µg/mL
same,MIC90,Streptococcus pneumoniae; Erythromycin-resistant (37),0.25 µg/mL
same,MIC50,Streptococcus pneumoniae; Minocycline-resistant (37),0.063 µg/mL
same,MIC90,Streptococcus pneumoniae; Minocycline-resistant (37),0.25 µg/mL
same,MIC50,Streptococcus pneumoniae; Penicillin-resistant (19),0.25 µg/mL
same,MIC90,Streptococcus pneumoniae; Penicillin-resistant (19),2 µg/mL
same,MIC50,Haemophilus influenzae,0.031 µg/mL
same,MIC90,Haemophilus influenzae,0.031 µg/mL
same,MIC Range,Haemophilus influenzae,0.016 to 0.5 µg/mL
